From patent US10201531B2, “Indazolyl-oxo-isothiazole compounds” (MOCHIDA PHARMACEUTICAL CO., LTD., priority 2015, dated 2019)

Tested on: Nrf2
Experiment: Evaluation of Nrf2 activation ability (Nrf2d-LacZ / Keap1 HEK293 reporter, Beta-Glo luminescence)
Assay type: cell-based, human
In short: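 HEK293 cells stably expressing a human Nrf2 degron–LacZ fusion plus human Keap1 were exposed to compound for 3 h at 37° C. Reporter β-galactosidase was read by Beta-Glo luminescence after 1 h at RT. Activation is given as % of the signal with 100 nM CDDO-Im.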

[1] = rated A/B/C, Pharmacological Test Example 1
[2] = Pharmacological Test Example 1, rated A/B/C

Compound | EC50 [1] [µM] | EC50 [2] [µM]
[O-][s+]1nc(O)cc1-n1ncc2c1CN(Cc1ccc(C(F)(F)F)nc1)C2 (stereo not drawn) [Example 265] | 5 to 10 | –
COc1ccc(CN2Cc3cnn(-c4cc(O)n[s+]4[O-])c3C2)cn1 (stereo not drawn) [Example 266] | 5 to 10 | –
[O-][s+]1nc(O)cc1-n1cc2c(n1)CN(Cc1cccc(Oc3ccccc3)c1)C2 (stereo not drawn) [Example 277] | 1 to 5 | –
[O-][s+]1nc(O)cc1-n1cccn1 (stereo not drawn) [Example 284] | 1 to 5 | –
[O-][s+]1nc(O)cc1-n1ccc(-c2cccc(Br)c2)n1 (stereo not drawn) [Example 286] | < 1 | –
[O-][s+]1nc(O)cc1-n1cc(I)cn1 (stereo not drawn) [Example 287] | 1 to 5 | –
[O-][s+]1nc(O)cc1-n1cc(-c2cccc(Br)c2)cn1 (stereo not drawn) [Example 290] | < 1 | –
[O-][s+]1nc(O)cc1-n1cc(C2=CCC(F)(F)CC2)cn1 (stereo not drawn) [Example 301] | < 1 | –
CC(C)(C)OC(=O)N1CC=C(c2cnn(-c3cc(O)n[s+]3[O-])c2)CC1 (stereo not drawn) [Example 304] | 1 to 5 | –
Cc1nn(-c2cc(O)n[s+]2[O-])c(C)c1I (stereo not drawn) [Example 305] | 1 to 5 | –
[O-][s+]1nc(O)cc1-n1cc(C2CCCCC2)cn1 (stereo not drawn) [Example 306] | 1 to 5 | –
[O-][s+]1nc(O)cc1-n1cc(CCc2ccccc2)cn1 (stereo not drawn) [Example 307] | < 1 | –
[O-][s+]1nc(O)cc1-n1cc(C2CCOCC2)cn1 (stereo not drawn) [Example 308] | 5 to 10 | –
Cc1cc(-c2ccccc2)nn1-c1cc(O)n[s+]1[O-] (stereo not drawn) [Example 310] | 1 to 5 | –
Cc1nn(-c2cc(O)n[s+]2[O-])c(C)c1-c1ccccc1 (stereo not drawn) [Example 311] | 5 to 10 | –
Cc1nn(-c2cc(O)n[s+]2[O-])c(C)c1C1=CCC(F)(F)CC1 (stereo not drawn) [Example 312] | 5 to 10 | –
Cc1nn(-c2cc(O)n[s+]2[O-])c(C)c1C1=CCN(C(=O)OC(C)(C)C)CC1 (stereo not drawn) [Example 313] | 5 to 10 | –
Cc1nn(-c2cc(O)n[s+]2[O-])c(C)c1C1=CCCCC1 (stereo not drawn) [Example 315] | – | 1 to 5
Cc1nn(-c2cc(O)n[s+]2[O-])c(C)c1C1=CCC(C)(C)CC1 (stereo not drawn) [Example 316] | – | 1 to 5
CCOC(=O)C1CC=C(c2c(C)nn(-c3cc(O)n[s+]3[O-])c2C)CC1 (stereo not drawn) [Example 317] | – | 1 to 5
[O-][s+]1nc(O)cc1-n1cc(/C=C/c2ccccc2)cn1 (stereo not drawn) [Example 318] | – | 1 to 5
[O-][s+]1nc(O)cc1-n1cc(-c2ccc(N3CCCCC3)nc2)cn1 (stereo not drawn) [Example 321] | – | 1 to 5
[O-][s+]1nc(O)cc1-n1cc(-c2ccc(N3CCCC3)nc2)cn1 (stereo not drawn) [Example 322] | – | 1 to 5

Compound | EC50 [1] [µM] | EC50 [2] [µM]
[O-][s+]1nc(O)cc1-n1cc(-c2ccc(C3CC3)nc2)cn1 (stereo not drawn) [Example 323] | – | < 1
COC(=O)C1(c2ccc(-c3cnn(-c4cc(O)n[s+]4[O-])c3)cc2)CC1 (stereo not drawn) [Example 324] | – | < 1
[O-][s+]1nc(O)cc1-n1cc(-c2cccc(-c3ccccc3)c2)cn1 (stereo not drawn) [Example 326] | – | < 1
[O-][s+]1nc(O)cc1-n1cc(-c2ccc(-c3ccccc3)cc2)cn1 (stereo not drawn) [Example 327] | – | 1 to 5
[O-][s+]1nc(O)cc1-n1cc(-c2ccccc2-c2ccccc2)cn1 (stereo not drawn) [Example 328] | – | 1 to 5
[O-][s+]1nc(O)cc1-n1cc(CCOc2ccccc2)cn1 (stereo not drawn) [Example 329] | – | 1 to 5
COC(=O)c1ccccc1-c1cnn(-c2cc(O)n[s+]2[O-])c1 (stereo not drawn) [Example 330] | – | 1 to 5
[O-][s+]1nc(O)cc1-n1cc(-c2ccc(Oc3ccccc3)cc2)cn1 (stereo not drawn) [Example 333] | – | < 1
[O-][s+]1nc(O)cc1-n1cc(-c2ccccc2Oc2ccccc2)cn1 (stereo not drawn) [Example 335] | – | 1 to 5
Cc1cccc(C)c1-c1cccc(COc2ccc(-c3cnn(-c4cc(O)n[s+]4[O-])c3)cc2)c1 (stereo not drawn) [Example 338] | – | 1 to 5
Cc1cc(OCCCS(C)(=O)=O)cc(C)c1-c1cccc(COc2ccc(-c3cnn(-c4cc(O)n[s+]4[O-])c3)cc2)c1 (stereo not drawn) [Example 339] | – | 1 to 5
[O-][s+]1nc(O)cc1-n1cc(-c2ccc3ccccc3c2)cn1 (stereo not drawn) [Example 340] | – | < 1
[O-][s+]1nc(O)cc1-n1cc(-c2cccc3ccccc23)cn1 (stereo not drawn) [Example 341] | – | 1 to 5
[O-][s+]1nc(O)cc1-n1cc(-c2ccc3c(c2)CCCC3)cn1 (stereo not drawn) [Example 342] | – | < 1
[O-][s+]1nc(O)cc1-n1cc(-c2cccc3cnccc23)cn1 (stereo not drawn) [Example 343] | – | 1 to 5
[O-][s+]1nc(O)cc1-n1cc(-c2cccc3cccnc23)cn1 (stereo not drawn) [Example 344] | – | < 1
[O-][s+]1nc(O)cc1-n1cc(C2=Cc3ccccc3C2)cn1 (stereo not drawn) [Example 345] | – | < 1
[O-][s+]1nc(O)cc1-n1cc(-c2ccc3c(c2)OCCO3)cn1 (stereo not drawn) [Example 346] | – | 1 to 5
CN1CCOc2cc(-c3cnn(-c4cc(O)n[s+]4[O-])c3)ccc21 (stereo not drawn) [Example 347] | – | < 1
[O-][s+]1nc(O)cc1-n1cc(C2=Cc3ccccc3CC2)cn1 (stereo not drawn) [Example 349] | – | < 1
[O-][s+]1nc(O)cc1-n1cc(-c2ccc3ncccc3c2)cn1 (stereo not drawn) [Example 350] | – | < 1
[O-][s+]1nc(O)cc1-n1cc(-c2ccc3ccncc3c2)cn1 (stereo not drawn) [Example 351] | – | 1 to 5
Cn1ccc2c(-c3cnn(-c4cc(O)n[s+]4[O-])c3)cccc21 (stereo not drawn) [Example 352] | – | < 1

Compound | EC50 [1] [µM] | EC50 [2] [µM]
Cn1ccc2ccc(-c3cnn(-c4cc(O)n[s+]4[O-])c3)cc21 (stereo not drawn) [Example 353] | – | < 1
Cc1nc2cc(-c3cnn(-c4cc(O)n[s+]4[O-])c3)ccc2s1 (stereo not drawn) [Example 354] | – | < 1
[O-][s+]1nc(O)cc1-n1cc(-c2cccc3ncccc23)cn1 (stereo not drawn) [Example 355] | – | 1 to 5
[O-][s+]1nc(O)cc1-n1cc(-c2ccc3cnccc3c2)cn1 (stereo not drawn) [Example 356] | – | 1 to 5
[O-][s+]1nc(O)cc1-n1cc(-c2ccc3cccnc3c2)cn1 (stereo not drawn) [Example 357] | – | < 1
Cn1ncc2c(-c3cnn(-c4cc(O)n[s+]4[O-])c3)cccc21 (stereo not drawn) [Example 360] | – | < 1
N#Cc1ccc(Oc2ccc(-c3cnn(-c4cc(O)n[s+]4[O-])c3)cc2)cc1 (stereo not drawn) [Example 362] | – | < 1
[O-][s+]1nc(O)cc1-n1cc(-c2ccccc2)cn1 (stereo not drawn) [Example 363] | – | < 1
O=S(=O)(c1cccc(COc2ccc(-c3cnn(-c4cc(O)n[s+]4[O-])c3)cc2)c1)N1CCCCC1 (stereo not drawn) [Example 366] | – | 1 to 5
[O-][s+]1nc(O)cc1-n1cc(-c2cccc(C(F)(F)F)c2)cn1 (stereo not drawn) [Example 367] | – | < 1
[O-][s+]1nc(O)cc1-n1cc(-c2cc(C(F)(F)F)cc(C(F)(F)F)c2)cn1 (stereo not drawn) [Example 368] | – | < 1
N#CC1(c2ccc(-c3cnn(-c4cc(O)n[s+]4[O-])c3)cc2)CC1 (stereo not drawn) [Example 369] | – | 1 to 5
O=C(Cc1ccc(-c2cnn(-c3cc(O)n[s+]3[O-])c2)cc1)N1CCc2ccccc21 (stereo not drawn) [Example 373] | – | 5 to 10
[O-][s+]1nc(O)cc1-n1cc(-c2ccc(Oc3ccc(C(F)(F)F)cc3Cl)cc2)cn1 (stereo not drawn) [Example 374] | – | 1 to 5
[O-][s+]1nc(O)cc1-n1cc(-c2ccc(OCc3cccc(C(F)(F)F)c3)cc2)cn1 (stereo not drawn) [Example 375] | – | 1 to 5
Cc1cccc(C)c1COc1ccc(-c2cnn(-c3cc(O)n[s+]3[O-])c2)cc1 (stereo not drawn) [Example 376] | – | 1 to 5
[O-][s+]1nc(O)cc1-n1cc(-c2ccc(Oc3ccccc3)cc2)cn1 (stereo not drawn) [Example 377] | – | < 1
[O-][s+]1nc(O)cc1-n1cc(-c2ccc(Oc3ccccc3)cc2)cn1 (stereo not drawn) [Example 378] | – | < 1
[O-][s+]1nc(O)cc1-n1cc(C2=Cc3ccccc3CC2)cn1 (stereo not drawn) [Example 381] | – | < 1
[O-][s+]1nc(O)cc1-n1cc(-c2cccc3cccnc23)cn1 (stereo not drawn) [Example 382] | – | < 1
[O-][s+]1nc(O)cc1-n1cc(-c2ccc3cccnc3c2)cn1 (stereo not drawn) [Example 383] | – | < 1
[O-][s+]1nc(O)cc1-n1cc(C2=Cc3ccccc3C2)cn1 (stereo not drawn) [Example 384] | – | < 1
[O-][s+]1nc(O)cc1-n1cc(-c2ccccn2)cn1 (stereo not drawn) [Example 386] | – | 1 to 5

Compound | EC50 [1] [µM] | EC50 [2] [µM]
COc1ccccc1-c1cnn(-c2cc(O)n[s+]2[O-])c1 (stereo not drawn) [Example 387] | – | < 1
COc1cccc(-c2cnn(-c3cc(O)n[s+]3[O-])c2)c1 (stereo not drawn) [Example 388] | – | < 1
COc1ccc(-c2cnn(-c3cc(O)n[s+]3[O-])c2)cc1 (stereo not drawn) [Example 389] | – | < 1
COc1cc(-c2cnn(-c3cc(O)n[s+]3[O-])c2)cc(OC)c1OC (stereo not drawn) [Example 390] | – | 1 to 5
COc1ccc(-c2cnn(-c3cc(O)n[s+]3[O-])c2)cn1 (stereo not drawn) [Example 392] | – | < 1
COc1ncccc1-c1cnn(-c2cc(O)n[s+]2[O-])c1 (stereo not drawn) [Example 393] | – | < 1
[O-][s+]1nc(O)cc1-n1cc(C2=Cc3ccccc3C2)cn1 (stereo not drawn) [Example 394] | – | 1 to 5
[O-][s+]1nc(O)cc1-n1cc(-c2cccnc2C(F)(F)F)cn1 (stereo not drawn) [Example 395] | – | 1 to 5
[O-][s+]1nc(O)cc1-n1cc(-c2ccc(C(F)(F)F)nc2)cn1 (stereo not drawn) [Example 396] | – | 1 to 5
[O-][s+]1nc(O)cc1-n1cc(C2Cc3ccccc3C2)cn1 (stereo not drawn) [Example 397] | – | < 1
COc1cncc(-c2cnn(-c3cc(O)n[s+]3[O-])c2)c1 (stereo not drawn) [Example 398] | – | 1 to 5
COc1ccc(-c2cnn(-c3cc(O)n[s+]3[O-])c2)c(OC)n1 (stereo not drawn) [Example 399] | – | < 1
CNc1ccc(-c2cnn(-c3cc(O)n[s+]3[O-])c2)cn1 (stereo not drawn) [Example 400] | – | 1 to 5
Cc1cncc(-c2cnn(-c3cc(O)n[s+]3[O-])c2)c1 (stereo not drawn) [Example 401] | – | 5 to 10
COc1ccc(-c2cnn(-c3cc(O)n[s+]3[O-])c2)c(C)n1 (stereo not drawn) [Example 402] | – | 1 to 5
COc1cc(-c2cnn(-c3cc(O)n[s+]3[O-])c2)ccn1 (stereo not drawn) [Example 404] | – | < 1
CN(C)Cc1ccc(-c2cnn(-c3cc(O)n[s+]3[O-])c2)cc1 (stereo not drawn) [Example 405] | – | 1 to 5
CN(C)Cc1cccc(-c2cnn(-c3cc(O)n[s+]3[O-])c2)c1 (stereo not drawn) [Example 406] | – | 5 to 10
[O-][s+]1nc(O)cc1-n1cc(-c2cnccn2)cn1 (stereo not drawn) [Example 407] | – | 1 to 5
[O-][s+]1nc(O)cc1-n1cc(-c2cnc3ccccc3n2)cn1 (stereo not drawn) [Example 408] | – | < 1
[O-][s+]1nc(O)cc1-n1cc(CCOc2cccnc2)cn1 (stereo not drawn) [Example 412] | – | 1 to 5
